Experimental data from patent US12428406B2 (PMV Pharmaceuticals, Inc., priority 2019, dated 2025).

Biological target: T1, p53 Y220C (Homo sapiens, UniProt P04637, Y220C)
T1 construct: The recombinant protein was a truncation mutant containing only amino acids 94-312 of p53; made in house; host or cells: E. coli
Assay: In vitro DNA binding activity assay (HTRF / TR-FRET): stabilization of p53 Y220C and increase of its DNA binding activity
Type: biochemical
Conditions: recombinant His-tagged p53 Y220C DNA binding domain (aa 94-312), biotin-labeled consensus DNA, incubated at 27° C. or 29° C. for 60 min
How it was run: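 Compounds from 4.5 mM DMSO stocks, 3-fold serial dilutions; room-temperature incubations of 15 and 20 min. SC150 = concentration raising DNA binding by 50% over no-compound control.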

T1 sequence (P04637 94-312, change not shown): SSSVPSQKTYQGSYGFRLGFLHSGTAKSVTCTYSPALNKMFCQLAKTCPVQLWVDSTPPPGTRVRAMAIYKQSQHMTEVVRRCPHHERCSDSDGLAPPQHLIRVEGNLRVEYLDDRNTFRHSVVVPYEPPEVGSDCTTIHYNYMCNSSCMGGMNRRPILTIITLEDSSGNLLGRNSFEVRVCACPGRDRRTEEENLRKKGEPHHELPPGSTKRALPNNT

Row | SC150 (concentration of the compound required to increase the DNA binding activity by 50%) | Compound
1 | + (+ = 0 μM ≤ SC150 < 0.05 μM) | COCC(O)CN1CCC(Nc2cccc3c2cc(C#CCNc2ccc(C(C)(C)C#N)cc2OC)n3CC(F)(F)F)CC1 (stereo not shown) [Compound 665A, 2-(4-{[3-(4-{[1-(2-hydroxy-3-methoxypropyl)piperidin-4-yl]amino}-1-(2,2,2-trifluoroethyl)-1H-indol-2-yl)prop-2-yn-1-yl]amino}-3-methoxyphenyl)-2-methylpropanenitrile]
2 | + (+ = 0 μM ≤ SC150 < 0.05 μM) | CCOC(=O)c1ccc(NCC#Cc2cc3c(N[C@H]4CCN(CC)C[C@H]4F)cccc3n2CC(F)(F)F)c(OC)c1 [Compound 824A]
3 | + (+ = 0 μM ≤ SC150 < 0.05 μM) | CS(=O)(=O)c1ccc(NCC#Cc2cc3c(NC4CCN(C(=O)CO)CC4)cccc3n2CC(F)(F)F)c(O)c1 [Compound 731A, 2-hydroxy-1-{4-[(2-{3-[(2-hydroxy-4-methanesulfonylphenyl)amino]prop-1-yn-1-yl}-1-(2,2,2-trifluoroethyl)-1H-indol-4-yl)amino]piperidin-1-yl}ethan-1-one]
4 | + (+ = 0 μM ≤ SC150 < 0.05 μM) | COCC(O)CN1CC[C@H](Nc2cccc3c2cc(C#CCNc2ccc(S(C)(=O)=O)cc2OC)n3CC(F)(F)F)[C@@H](C)C1 (mixture of isomers) [Compound 702A, rac-1-[(3R,4S)-4-[(2-{3-[(4-methanesulfonyl-2-methoxyphenyl)amino]prop-1-yn-1-yl}-1-(2,2,2-trifluoroethyl)-1H-indol-4-yl)amino]-3-methylpiperidin-1-yl]-3-methoxypropan-2-ol]
5 | + (+ = 0 μM ≤ SC150 < 0.05 μM) | COc1cc(C(=O)O)ccc1NCC#Cc1cc2c(N[C@H]3CCNC[C@H]3F)cccc2n1CC(F)(F)F [Compound 852A]
6 | + (+ = 0 μM ≤ SC150 < 0.05 μM) | CCC(=O)N1CC[C@H](Nc2cccc3c2cc(C#CCNc2ccc(S(C)(=O)=O)cc2OC)n3CC(F)(F)F)[C@H](F)C1 [Compound 865A, 1-[(3R,4S)-3-fluoro-4-[(2-{3-[(4-methanesulfonyl-2-methoxyphenyl)amino]prop-1-yn-1-yl}-1-(2,2,2-trifluoroethyl)-1H-indol-4-yl)amino]piperidin-1-yl]propan-1-one]
7 | + (+ = 0 μM ≤ SC150 < 0.05 μM) | CN(C)[C@H]1CC[C@H](Nc2cccc3c2cc(C#CCNc2ccc(S(C)(=O)=O)cc2C(F)(F)F)n3CC(F)(F)F)CC1 [Compound 139A, (1R,4R)-N^4-[2-(3-{[4-methanesulfonyl-2-(trifluoromethyl)phenyl]amino}prop-1-yn-1-yl)-1-(2,2,2-trifluoroethyl)-1H-indol-4-yl]-N^1,N^1-dimethylcyclohexane-1,4-diamine]
8 | + (+ = 0 μM ≤ SC150 < 0.05 μM) | CS(=O)(=O)c1ccc(NCC#Cc2cc3c(NC4CCC(N5CCOCC5)CC4)cccc3n2CC(F)(F)F)c(OCF)c1 [Compound 340A, 2-(3-{[2-(fluoro-methoxy)-4-methane-sulfonylphenyl]amino}prop-1-yn-1-yl)-N-[(1R,4R)-4-(morpholin-4-yl)cyclohexyl]-1-(2,2,2-trifluoroethyl)-1H-indol-4-amine]
9 | + (+ = 0 μM ≤ SC150 < 0.05 μM) | COc1cc(C(=O)O)ccc1NCC#Cc1cc2c(NC3CCN(CCCS(C)(=O)=O)CC3)cccc2n1CC(F)(F)F [Compound 707A, 4-{[3-(4-{[1-(3-methanesulfonylpropyl)piperidin-4-yl]amino}-1-(2,2,2-trifluoroethyl)-1H-indol-2-yl)prop-2-yn-1-yl]amino}-3-methoxybenzoic acid]
10 | + (+ = 0 μM ≤ SC150 < 0.05 μM) | COc1cc(S(C)(=O)=O)ccc1NCC#Cc1cc2c(N[C@H]3CCN(CC(=O)NCCN(Cc4ccccn4)Cc4ccccn4)C[C@H]3F)cccc2n1CC(F)(F)F (racemic) [Compound 891A, rac-N-(2-{bis[(pyridin-2-yl)methyl]amino}ethyl)-2-[(3R,4S)-3-fluoro-4-[(2-{3-[(4-methanesulfonyl-2-methoxyphenyl)amino]prop-1-yn-1-yl}-1-(2,2,2-trifluoroethyl)-1H-indol-4-yl)amino]piperidin-1-yl]acetamide]
11 | + (+ = 0 μM ≤ SC150 < 0.05 μM) | COc1cc(S(C)(=O)=O)ccc1NCC#Cc1cc2c(NC3CCN(C4CCOCC4)C3)cccc2n1CC(F)(F)F (stereo not shown) [Compound 458A, 2-{3-[(4-methanesulfonyl-2-methoxyphenyl)amino]prop-1-yn-1-yl}-N-[1-(oxan-4-yl)pyrrolidin-3-yl]-1-(2,2,2-trifluoroethyl)-1H-indol-4-amine]
12 | + (+ = 0 μM ≤ SC150 < 0.05 μM) | COc1cc(S(N)(=O)=O)ccc1NCC#Cc1cc2c(NC3CCN(CC(C)OC(=O)C(C)C)CC3)cccc2n1CC(F)(F)F (stereo not shown) [Compound 598A, 1-{4-[(2-{3-[(2-methoxy-4-sulfamoylphenyl)amino]prop-1-yn-1-yl}-1-(2,2,2-trifluoroethyl)-1H-indol-4-yl)amino]piperidin-1-yl}propan-2-yl 2-methylpropanoate]

The remaining lines, values behind:

Row | Compound | SC150 (concentration of the compound required to increase the DNA binding activity by 50%)
13 | COC[C@@H](O)CN1CCC(Nc2cccc3c2cc(C#CCNc2ccc(S(C)(=O)=O)cc2OC)n3CC(F)(F)F)CC1 [Compound 612A, (2S)-1-{4-[(2-{3-[(4-methanesulfonyl-2-methoxyphenyl)amino]prop-1-yn-1-yl}-1-(2,2,2-trifluoroethyl)-1H-indol-4-yl)amino]piperidin-1-yl}-3-methoxypropan-2-ol] | + (+ = 0 μM ≤ SC150 < 0.05 μM)
14 | COc1cc(S(=O)(=O)N(C)CCO)ccc1NCC#Cc1cc2c(NC3CCN(C4CCOCC4)CC3)cccc2n1CC(F)(F)F [Compound 555A, N-(2-hydroxyethyl)-3-methoxy-N-methyl-4-{[3-(4-{[1-(oxan-4-yl)piperidin-4-yl]amino}-1-(2,2,2-trifluoroethyl)-1H-indol-2-yl)prop-2-yn-1-yl]amino}benzene-1-sulfonamide] | + (+ = 0 μM ≤ SC150 < 0.05 μM)
15 | COCC(O)CN1CCC(Nc2cccc3c2cc(C#CCNc2ccc(C(=O)NC(C)C)cc2OC)n3CC(F)(F)F)CC1 (stereo not shown) [Compound 633A, 4-{[3-(4-{[1-(2-hydroxy-3-methoxypropyl)piperidin-4-yl]amino}-1-(2,2,2-trifluoroethyl)-1H-indol-2-yl)prop-2-yn-1-yl]amino}-3-methoxy-N-(propan-2-yl)benzamide] | + (+ = 0 μM ≤ SC150 < 0.05 μM)
16 | CNC(=O)c1ccc(NCC#Cc2cc3c(N[C@H]4CCN(C)C[C@H]4F)cccc3n2CC(F)(F)F)c(OC)c1 [Compound 805A, 4-{[3-(4-{[(3R,4S)-3-fluoro-1-methylpiperidin-4-yl]amino}-1-(2,2,2-trifluoroethyl)-1H-indol-2-yl)prop-2-yn-1-yl]amino}-3-methoxy-N-methylbenzamide] | + (+ = 0 μM ≤ SC150 < 0.05 μM)
17 | COc1cc(C(=O)O)ccc1NCC#Cc1cc2c(N[C@@H]3CCN(CCO)C[C@@H]3F)cccc2n1CC(F)(F)F [Compound 908A, 4-{[3-(4-{[(3S,4R)-3-fluoro-1-(2-hydroxyethyl)piperidin-4-yl]amino}-1-(2,2,2-trifluoroethyl)-1H-indol-2-yl)prop-2-yn-1-yl]amino}-3-methoxybenzoic acid] | + (+ = 0 μM ≤ SC150 < 0.05 μM)
18 | CS(=O)(=O)c1ccc(NCC#Cc2cc3c(N[C@H]4CC[C@H](N5CC6CC(C5)O6)CC4)cccc3n2CC(F)(F)F)c(OCC#N)c1 [Compound 407A, 2-(5-methanesulfonyl-2-{[3-(4-{[(1R,4R)-4-{6-oxa-3-azabicyclo[3.1.1]heptan-3-yl}cyclohexyl]amino}-1-(2,2,2-trifluoroethyl)-1H-indol-2-yl)prop-2-yn-1-yl]amino}phenoxy)acetonitrile] | + (+ = 0 μM ≤ SC150 < 0.05 μM)
19 | COCC(O)CN1CCC(Nc2c(OC)ccc3c2cc(C#CCNc2ccc(S(C)(=O)=O)cc2OC)n3CC(F)(F)F)CC1 (stereo not shown) [Compound 643A, 1-{4-[(2-{3-[(4-methanesulfonyl-2-methoxyphenyl)amino]prop-1-yn-1-yl}-5-methoxy-1-(2,2,2-trifluoroethyl)-1H-indol-4-yl)amino]piperidin-1-yl}-3-methoxypropan-2-ol] | +++ (+++ = 0.1 μM ≤ SC150 < 0.2 μM)
20 | CNC(=O)c1ccc(NCC#Cc2cc3c(N[C@H]4CC[C@H](N(C)C)CC4)cccc3n2CC(F)(F)F)c(OCCC#N)c1 [Compound 114A, 3-(2-cyanoethoxy)-N-methyl-4-{[3-(4-{[(1R,4R)-4-(dimethyl-amino)cyclohexyl]amino}-1-(2,2,2-trifluoro-ethyl)-1H-indol-2-yl)prop-2-yn-1-yl]amino}benzamide] | + (+ = 0 μM ≤ SC150 < 0.05 μM)
21 | COc1cc(-c2cccnc2)ccc1NCC#Cc1cc2c(NC3CCN(C)CC3)cccc2n1CC(F)(F)F [Compound 503A, 2-(3-{[2-methoxy-4-(pyridin-3-yl)phenyl]amino}prop-1-yn-1-yl)-N-(1-methylpiperidin-4-yl)-1-(2,2,2-trifluoroethyl)-1H-indol-4-amine] | ++ (++ = 0.05 μM ≤ SC150 < 0.1 μM)
22 | CN1CCC(Nc2cccc3c2cc(C#CCOc2ccc(S(C)(=O)=O)cc2N(C)C)n3CC(F)(F)F)CC1 [Compound 488A, 2-{3-[2-(dimethylamino)-4-methanesulfonylphenoxy]prop-1-yn-1-yl}-N-(1-methylpiperidin-4-yl)-1-(2,2,2-trifluoroethyl)-1H-indol-4-amine] | +++ (+++ = 0.1 μM ≤ SC150 < 0.2 μM)
